The text below walks through data of US8563565B2, “Pyrazoloquinoline derivatives” (Eisai R&D Management Co., Ltd., priority 2011, dated 2013).

pIC50: −log10 of the molar value.

By pIC50 is commonly meant the IC50 on a negative log10 scale, so that one unit is a factor of ten.

In assay [1] the target is T1, human recombinant PDE9 protein (Homo sapiens, UniProt O76083).
T1 construct: His-tag (inferred from the Ni column purification; a myc His-tag vector is named only for the HEK293 expression check); made in house; host or cells: silkworm (pYNG vector, Katakura Industries)
The experiment in a line: PDE9 inhibitory activity test (measurement of PDE9 inhibitory action, [3H]-cGMP). Format: biochemical. The settings on record: PDE9 IC50, human recombinant PDE9, 30° C., 10 min.

In assay [2] the test system is cGMP in the cerebrospinal fluid. As to the kind of experiment: Effect on rodent cerebrospinal fluid cGMP (mouse). Format: in vivo, ICR male mice. The settings on record: 10 mg/kg p.o., sampling time 0.5 hr. As for the experimental part: (§1) 3) Effect on Rodent Cerebrospinal Fluid cGMP
(§2) The test compound was administered to ICR male mice (Charles River Laboratories Japan, Inc.), Sprague-Dawley male rats (SD) (Charles River Laboratories Japan, Inc.) or Long-Evans male rats (LE) (Institute for Animal Reproduction), and the cerebrospinal fluid was then collected under pentobarbital anesthesia and stored at −20° C. cGMP in the cerebrospinal fluid was measured in accordance with the acetylation EIA procedure of cGMP EIA kit (GE Healthcare) or the non-acetylation procedure of cGMP EIA kit (Cayman) The result was an increase (C) in the amount of cGMP of the test compound-administered group (B) relative to the amount of cGMP of the vehicle-administered group (A), and was calculated using the following formula cGMP increase(C)=[(B)−(A)]/(A)×100(%)

Assay [3] has the same test system. As to the kind of experiment: Effect on rodent cerebrospinal fluid cGMP (rat). The class given is in vivo. The settings on record: Rattus norvegicus, po, 1 h, read-out: % CSF cGMP increase from vehicle control. As for the experimental part:
as §1, §2

The next assay deals with cGMP in the hippocampus. As to the kind of experiment: Effect on rodent hippocampal cGMP. To be noted: Rattus norvegicus, po, 1 h, read-out: % hippocampal cGMP increase from vehicle control. The class given is in vivo, rat. As to the method: 4) Effect on Rodent Hippocampal cGMP
The test compound was administered to Sprague-Dawley male rats (Charles River Laboratories Japan, Inc.) or Long-Evans male rats (Institute for Animal Reproduction) and then the animals were sacrificed with microwave under pentobarbital anesthesia, and the hippocampus was extracted. After measuring the wet weight, the hippocampus was frozen with liquid nitrogen and stored at −80° C. In the measurement of cGMP in the hippocampus, a 0.5 M perchloric acid/1 mM EDTA solution was added at 5% (w/v) based on the wet weight, and the mixture was homogenized. After the homogenization, the homogenate was centrifuged (10000 rpm, 15 min), and the supernatant was collected. The collected supernatant was neutralized with a 2 M potassium bicarbonate solution and centrifuged (13000 rpm, 10 min). The cGMP concentration in the supernatant was measured in accordance with the non-acetylation EIA procedure of cGMP EIA kit (GE Healthcare). The result was an increase (C) in the amount of cGMP of the test compound-administered group (B) relative to the amount of cGMP of the vehicle-administered group (A), and was calculated using the following formula. cGMP increase(C)=[(B)−(A)]/(A)×100(%)

T1 sequence (O76083 whole entry): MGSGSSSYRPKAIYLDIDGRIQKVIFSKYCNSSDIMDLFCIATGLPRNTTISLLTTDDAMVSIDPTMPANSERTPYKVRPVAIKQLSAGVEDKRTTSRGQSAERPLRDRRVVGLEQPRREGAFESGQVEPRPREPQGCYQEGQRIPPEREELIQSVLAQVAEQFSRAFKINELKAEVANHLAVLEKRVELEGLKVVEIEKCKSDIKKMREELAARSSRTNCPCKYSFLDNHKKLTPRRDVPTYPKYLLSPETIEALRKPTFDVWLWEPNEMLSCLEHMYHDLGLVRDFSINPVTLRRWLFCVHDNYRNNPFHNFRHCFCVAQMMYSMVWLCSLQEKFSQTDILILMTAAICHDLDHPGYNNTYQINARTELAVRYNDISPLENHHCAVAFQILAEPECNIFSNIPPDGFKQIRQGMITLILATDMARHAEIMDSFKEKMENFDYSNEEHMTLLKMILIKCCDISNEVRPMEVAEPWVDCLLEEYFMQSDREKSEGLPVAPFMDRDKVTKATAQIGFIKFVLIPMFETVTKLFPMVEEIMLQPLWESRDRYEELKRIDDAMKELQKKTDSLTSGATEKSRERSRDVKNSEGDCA

For the molecule `Cc1cc(C)c(-c2ccc3c(c2)[nH]c(=O)c2cnn(C4CCOCC4)c23)c(C)n1` [Example 2, 7-(2,4,6-trimethylpyridin-3-yl)-1-(tetrahydro-2H-pyran-4-yl)-1H-pyrazolo[4,3-c]quinolin-4(5H)-one], the pIC50 in assay [1] was 7.60. For the same molecule, the “% CSF cGMP increase from vehicle control” value in assay [2] is 110%.
On to `COc1cc(C)c(-c2cc3[nH]c(=O)c4cnn([C@H]5CCOC5)c4c3cc2F)c(C)n1` [Example 55, (S)-8-fluoro-7-(6-methoxy-2,4-dimethylpyridin-3-yl)-1-(tetrahydrofuran-3-yl)-1H-pyrazolo[4,3-c]quinolin-4(5H)-one], for which the pIC50 in assay [1] is 7.76. Also, the change in vivo at 10 mg/kg was 323% in assay [3] and 17% with cGMP in the hippocampus.
